# Reference: patent US20220152165A1, “COMBINATION OF NASAL GENE DELIVERY AND ORAL CINNAMIC ACID, OLEAMIDE OR GEMFIBROZIL FOR LYSOSOMAL STOARGE DISORDERS” (Rush University Medical Center, priority 2019, published 2022)
# Test system: Cln2^(−/−) mice
# Assay: Life span of Cln2^(−/−) mice, animal model of late infantile Batten disease (LINCL)
# Type: in vivo
# Conditions: n=6
# Description: (§1) For intranasal gene delivery, Cln2^(−/−) mice received 5×10^6 genome copies of Ad-Cln2 in a volume of […] twice a week intranasally (2.5 μl/nostril) starting from two weeks of age for four weeks. For gemfibrozil (gem) treatment, mice received gem (dissolved in 0.1% MeC) orally at a dose of 7.5 mg/kg body weight/day starting from six weeks of age. FIG. 1 describes the percentage of survival is shown by Kaplan-Meier plot.
# as §1, with “FIG. 2” for “FIG. 1”, “describes mean” for “describes the percentage of”, “survival days. Six mice (n=6) containing 3 males and 3 females were used in each group. ***p<0.001; NS, not significant.” for “survival is shown by Kaplan-Meier plot.”
# Intranasal gene delivery was examined as a valid option for fatal lysosomal storage disorders. A mouse model of Late Infantile Neuronal Ceroid Lipofuscinosis (LINCL) was used, a rare neurodegenerative disease caused by mutations in the Cln2 gene that leads to deficiency or loss of function of the tripeptidyl peptidase 1 (TPP1) enzyme. […]
compound,measurement,setting,value
"Cc1ccc(C)c(OCCCC(C)(C)C(=O)O)c1 [gemfibrozil, 5-(2,5-dimethylphenoxy)-2,2-dimethylpentanoic acid]",lifespan of Cln2^−/− mice,"gemfibrozil alone, oral 7.5 mg/kg body weight/day starting from six weeks of age, mice not receiving Ad-Cln2",significantly increased the lifespan
same,lifespan of Cln2^−/− mice that received intranasal Ad-Cln2,"oral gemfibrozil 7.5 mg/kg body weight/day after 4 weeks of intranasal Ad-Cln2, compared with Ad-Cln2 alone",did not further increase the lifespan
